Measured values as given in patent US20140220036A1, “METHODS FOR TREATING NEURODEGENERATIVE DISEASES AND FOR IDENTIFYING AGENTS USEFUL FOR TREATING NEURODEGENERATIVE DISEASES” (priority 2013, published 2014).

Test system: fast axonal transport (FAT)
Experiment: not given
Settings: Kanaan et al. 2011; squid axons; cited from earlier work

| Compound | effect on inhibition of axonal transport by PAD peptide |
| --- | --- |
| Cn1cc(C2=C(c3coc4ccccc34)C(=O)NC2=O)c2cc(Br)ccc21 [ING-135] | blocked |

Test system: h-tau42-dependent transmitter block
Experiment: Oral administration of agents to squid, then presynaptic h-tau42 injection and recording of synaptic transmission
Format: in vivo, squid (Loligo paelli)
Settings: systemic administration of agent
Method: Squid received an oral dose of each agent effective for such inhibiting phosphorylation of the tau protein. At 24 hours after the first dose a second dose was given, and the electrophysiological experiments were performed 1 hour after the second feeding. It was determine that after 24 hours of the double administration, an effective concentration of each agent effective for such inhibiting phosphorylation of the tau protein was measured in the CNS of the gastrically intubated squid (n=10 squid). Synapses from the treated squid were microinjected at the presynaptic axon with h-tau42 (an approximate 80 nM final concentration h-tau42 (n=19), considering a 100× dilution factor. Pre- and post-synaptic potentials were recorded for 90 min.
The squid (Loligo paelli) stellate ganglia isolation from the mantle and the electrophysiological techniques used have been described previously (Llinás, et al., Proc. Natl. Acad. Sci. U.S.A. 1985; 82: 3035-3039). Two glass micropipette electrodes impaled the largest (most distal) presynaptic terminal digit at the synaptic junction site while the post-synaptic axon was impaled by one microelectrode at the junctional site. One of the pre-electrodes was used for pressure microinjection of h-tau42 and also supported voltage clamp current feedback, while the second monitored membrane potential. The total volume injected fluctuated between 0.1 and 1 pl. (Llinás, et al., Proc. Natl. Acad. Sci. U.S.A. 1985; 82: 3035-3039). The exact location of injection and the diffusion and steady-state distribution of the protein/fluorescent dye mix (0.001% dextran fluorescein) were monitored using a fluorescence microscope attached to a Hamamatsu camera system (Middlesex, N.J.). In all experiments a good correlation was observed between the localization of the fluorescence and the electrophysiological findings.
Following presynaptic and post-synaptic axon impalements and the determination of normal synaptic transmission (Llinás, et al., Proc. Natl. Acad. Sci. U.S.A. 1985; 82: 3035-3039; Llinás, et al. Proc. Natl. Acad. Sci. U.S.A. 1994; 91: 12990-12993; Lin, et al., Proc. Natl. Acad. Sci. U.S.A. 1990; 87: 8257-8261), the effect of human tau on synaptic release was evaluated by presynaptic microinjections administered under direct visualization using a fluorescent dye/protein mix, reaching a final concentration after diffusion of approximately 80 nM. (See, Materials and Methods) Presynaptic and post-synaptic potentials were recorded simultaneously under current-clamp configuration. Presynaptic spikes were activated every 5 minutes (low-frequency protocol). With this paradigm, it was determined that 5-10 minutes after an injection of h-tau42, a reduction of transmitter release could be observed. With further time, a total block of transmission resulted, within 30-40 minutes depending on the length of the release zone in the preterminal axon (see, e.g. FIG. 2). […] By contrast, following administration of each agent effective for such inhibiting phosphorylation of the tau protein to the squid (see bellow) h-tau42-dependent transmitter block was prevented (see, generally, Figures).

| Compound | h-tau42 induced functional and biochemical abnormalities in the presynaptic axon |
| --- | --- |
| Cn1cnc(N)c2ncnc1-2 [3-methyladenine] | prevented or ameliorated |
| O=C1CN(/N=C/c2ccc(-c3ccc([N+](=O)[O-])cc3)o2)C(O)=N1 [Dantrolene] | prevented or ameliorated |
| Cn1cc(C2=C(c3coc4ccccc34)C(=O)NC2=O)c2cc(Br)ccc21 [ING-135] | prevented or ameliorated |
| [Cl-].[Li+] [LiCl] | prevented or ameliorated |
| C[S+]([O-])c1ccc(-c2nc(-c3ccncc3)c(-c3ccc(F)cc3)[nH]2)cc1 (centres unmarked) [SB203580] | prevented or ameliorated |
| Cn1cc(C2=C(c3ccc(Cl)cc3Cl)C(=O)NC2=O)c2ccccc21 [SB216763] | prevented or ameliorated |
| Xitospongin C | prevented or ameliorated |
